# Assay: RP, Thermo Scientific Accucore C18, 150 × 2.1 mm, 2.6 µm, 24 °C, 0.28 mL/min, estimated dead time 0.83 min; A: 90% water + 10% acetonitrile + 10 mM ammonium acetate; B: 20% water + 80% methanol + 10 mM ammonium acetate; gradient (min/%B) 0/0 2.5/0 7.5/30 12.5/30 15/40 20/100 27.5/100
# Conditions: stereoisomer not certain
row,LC retention time [min],Structure (SMILES)
1,9.34,CC12C=CC(=O)C=C1CCC1C2C(O)CC2(C)C1CCC2(O)C(=O)CO (stereo not drawn)
2,7.62,COc1ccc(CC(C)NCC(O)c2ccc(O)c(NC=O)c2)cc1.COc1ccc(CC(C)NCC(O)c2ccc(O)c(NC=O)c2)cc1.O=C(O)C=CC(=O)O (stereo not drawn)
3,15.4,COc1ccccc1OCCNCC(O)COc1cccc2[nH]c3ccccc3c12 (stereo not drawn)
4,10.1,C=CCc1ccccc1OCC(O)CNC(C)C (stereo not drawn)
5,17.9,Cc1ccc(C)c(OCCCC(C)(C)C(=O)O)c1
6,7.33,COCCc1ccc(OCC(O)CNC(C)C)cc1 (stereo not drawn)
7,4.97,CC(C)(C)NCC(O)COc1cccc2c1CC(O)C(O)C2 (stereo not drawn)
8,12.7,CC1(C)OC2CC3C4CCC5=CC(=O)C=CC5(C)C4C(O)CC3(C)C2(C(=O)CO)O1 (stereo not drawn)
9,4.22,CC(C)(C)NCC(O)COc1cccc2c1CCC(=O)N2 (stereo not drawn)
10,17.2,CN(C)CCC=C1c2ccccc2CCc2ccccc21
11,8.1,COC(=O)CCc1ccc(OCC(O)CNC(C)C)cc1 (stereo not drawn)
12,9.01,CC(=O)CC(c1ccccc1)c1c(O)c2ccccc2oc1=O (stereo not drawn)
13,5.43,Cc1cc(=O)n(-c2ccccc2)n1C
14,7.63,CC(C)(C)NCC(O)COc1cccc2c1CCCC2=O (stereo not drawn)
15,8.05,CC(C(=O)O)c1cccc(C(=O)c2ccccc2)c1 (stereo not drawn)
16,7.05,CC(C)(C)NCC(O)COc1nsnc1N1CCOCC1 (stereo not drawn)
17,18.6,C#CC1(O)CCC2C3C(C)CC4=C(CCC(=O)C4)C3CCC21C (stereo not drawn)
18,8.57,C=CCOc1ccccc1OCC(O)CNC(C)C (stereo not drawn)
19,8.15,CCN(CC)C(=O)Nc1ccc(OCC(O)CNC(C)(C)C)c(C(C)=O)c1 (stereo not drawn)
20,12.2,CC(C)(C#N)c1cc(Cn2cncn2)cc(C(C)(C)C#N)c1
21,8.86,CC(C)NCC(O)COc1ccc(COCCOC(C)C)cc1 (stereo not drawn)
22,21.2,CCC(C(=O)OCCN1CCOC(c2ccccc2)C1C)c1ccccc1 (stereo not drawn)
23,10.7,NC(=O)N1c2ccccc2C=Cc2ccccc21

row,LC retention time [min],Structure (SMILES)
1,11,CC1CC2C(C(O)CC3(C)C2CCC3(O)C(=O)CO)C2(C)C=CC(=O)C=C12 (stereo not drawn)
2,17.2,COC(=O)C1=C(C)NC(C)=C(C(=O)OC)C1c1ccccc1[N+](=O)[O-]
3,8.07,CCN(CC)C(=O)c1ccc(O)c(OC)c1
4,17.2,CS(=O)(=O)Nc1ccc([N+](=O)[O-])cc1Oc1ccccc1
5,21.2,CCC(=C(c1ccccc1)c1ccc(OCCN(C)C)cc1)c1ccccc1
6,15.7,CC(=O)OCC(=O)C12N=C(C)OC1CC1C3CCC4=CC(=O)C=CC4(C)C3C(O)CC12C (stereo not drawn)
7,5.49,CCN(CC)C(=O)c1cccnc1
8,9,CC(CCc1ccccc1)NCC(O)c1ccc(O)c(C(N)=O)c1 (stereo not drawn)
9,9.34,CC12CCC(=O)C=C1CCC1C2C(=O)CC2(C)C1CCC2(O)C(=O)CO (stereo not drawn)
10,9.25,CCCCNc1cc(C(=O)O)cc(S(N)(=O)=O)c1Oc1ccccc1
11,9.86,CC(C)NCC(O)COc1cccc2ccccc12 (stereo not drawn)
12,6.51,Nc1nc(N)c2nc(-c3ccccc3)c(N)nc2n1
13,6.44,COc1cc(Cc2cnc(N)nc2N)cc(OC)c1OC
14,7.13,CNC(C)CCC=C(C)C (stereo not drawn)
15,5.15,CC(C)NCC(O)COc1cccc2[nH]ccc12 (stereo not drawn)
16,9.4,CC12C=CC(=O)C=C1CCC1C2C(=O)CC2(C)C1CCC2(O)C(=O)CO (stereo not drawn)
17,7.07,CCCC(=O)Nc1ccc(OCC(O)CNC(C)C)c(C(C)=O)c1 (stereo not drawn)
18,8.74,CCCN(CCC)S(=O)(=O)c1ccc(C(=O)O)cc1
19,15.6,CNCCC=C1c2ccccc2CCc2ccccc21
20,17,OCc1cc(C(O)CNCCCCCCOCCCCc2ccccc2)ccc1O (stereo not drawn)
21,6.13,CCCCCC(C)N (stereo not drawn)
22,10.2,CC(C)NCC(O)COc1ccc(CCOCC2CC2)cc1 (stereo not drawn)

row,Structure (SMILES),LC retention time [min]
1,CC1C(c2ccccc2)OCCN1C (stereo not drawn),8.08
2,CC(N)Cc1ccccc1 (stereo not drawn),3.77
3,CC(CN1CCOCC1)C(C(=O)N1CCCC1)(c1ccccc1)c1ccccc1 (stereo not drawn),19
4,CN1C2CCC1C(C(=O)O)C(OC(=O)c1ccccc1)C2 (stereo not drawn),4.81
5,COc1ccc2c3c1OC1C(O)C=CC4C(C2)N(C)CCC341 (stereo not drawn),4.48
6,CNC(C)C(=O)c1ccccc1 (stereo not drawn),2.99
7,CC(Cc1ccccc1)N(C)Cc1ccco1 (stereo not drawn),14.8
8,CNC(C)C(=O)c1ccc2c(c1)OCO2 (stereo not drawn),3.44
9,CNC(C)Cc1ccc2c(c1)OCO2 (stereo not drawn),5.12
10,N=C1NC(=O)C(c2ccccc2)O1 (stereo not drawn),3.65
11,C1CCc2nnnn2CC1,2.93
12,CC(Cc1ccc(O)cc1)NCC(O)c1cc(O)cc(O)c1 (stereo not drawn),3.13
13,CCCCCc1cc(O)c2c(c1)OC(C)(C)C1CCC(C(=O)O)=CC21 (stereo not drawn),18.9
14,CC(C)=CCN1CCC2(C)c3cc(O)ccc3CC1C2C (stereo not drawn),9.19
15,CNC(C)Cc1ccccc1 (stereo not drawn),4.66
16,CNC(C)Cc1ccccc1OC (stereo not drawn),6.54
17,CCNC1C2CCC(C2)C1c1ccccc1 (stereo not drawn),9.1
18,CC(C)c1c(CN(C)C(C)Cc2ccccc2)n(C)n(-c2ccccc2)c1=O (stereo not drawn),21.3
19,CC(Cc1ccccc1)NCCC#N (stereo not drawn),8.95
20,CC(N)C(=O)c1ccccc1 (stereo not drawn),8.59
21,O=C1CC2OCC=C3CN4CCC56c7ccccc7N1C5C2C3CC46 (stereo not drawn),6.68
22,COc1cccc(C2(O)CCCCC2CN(C)C)c1 (stereo not drawn),7.44

row,Structure (SMILES),LC retention time [min]
1,CNC(C)CC1CCCCC1 (stereo not drawn),8.35
2,CNC(C)C(=O)c1ccc(C)cc1 (stereo not drawn),6.27
3,COC(=O)C1C(OC(=O)c2ccccc2)CC2CCC1N2C (stereo not drawn),8.59
4,c1ccc(CN2CCNCC2)cc1,4.45
5,CCCC(Cc1ccccc1)N1CCCC1 (stereo not drawn),9.51
6,COc1ccc2c3c1OC1C(=O)CCC4(O)C(C2)N(C)CCC314 (stereo not drawn),5.11
7,CC(C(O)c1ccccc1)N(C)C (stereo not drawn),3.27
8,CNC(C)C(O)c1ccccc1 (stereo not drawn),2.75
9,CCC1(O)CCC2C3CCC4=CC(=O)CCC4=C3C=CC21CC (stereo not drawn),18.8
10,CC(Cc1ccccc1)N(C)Cc1ccccc1 (stereo not drawn),17.8
11,CC(N)Cc1ccc2c(c1)OCO2 (stereo not drawn),4.23
12,CCCC(C(=O)c1ccc2c(c1)OCO2)N1CCCC1 (stereo not drawn),8.97
13,CCC(=O)C(CC(C)N(C)C)(c1ccccc1)c1ccccc1 (stereo not drawn),16.5
14,COC12CCC3(CC1C(C)(O)C(C)(C)C)C1Cc4ccc(O)c5c4C3(CCN1CC1CC1)C2O5 (stereo not drawn),22.2
15,COc1ccc2c(c1)C13CCCCC1C(C2)N(C)CC3 (stereo not drawn),11
16,CCNC(C)C(=O)c1ccc(C)cc1 (stereo not drawn),6.99
17,CC1NCCOC1c1ccccc1 (stereo not drawn),4.89
18,CC(C)(N)Cc1ccccc1,4.37
19,C#CCN(C)C(C)Cc1ccccc1 (stereo not drawn),15.1
20,Cc1ccccc1CC(C)N (stereo not drawn),6.42
21,C#CC1(O)CCC2C3CCC4=CC(=O)CCC4=C3C=CC21CC (stereo not drawn),17.5
